The values below come from the SangsterLogP compilation.

The structures appear in SMILES notation.

This data set in a line: method code SF-AS/HPLC, from DOI: 10.1039/a908863f.
In the case of `C=CC(=O)OCCCCCCOC(=O)C=C`, the logP was 3.08.

`C=CC(=O)OCC(COC(=O)C=C)(COC(=O)C=C)COC(=O)C=C` gave a logP of 2.23.

As for `C=CC(=O)OCCCCCCCCCCCCCCCCCC`, the logP was 7.1.

Regarding `C=CC(=O)OCC(CC)(COC(=O)C=C)COC(=O)C=C`, the logP was 2.75.

Regarding `C=CC(=O)OCCCCCCCCCC`, the logP came to 5.46.

Molecule `C=CC(=O)OCCOCCO` had a logP of -0.3.

As to `C=CC(=O)OCCOCCOC(=O)C=C`, the logP was found to be 0.79.

On to `C=CC(=O)OCCOCCOCCOC(=O)C=C`, for which the logP worked out at 0.65.

As for `C=CC(=O)Oc1ccccc1`, the logP stood at 1.94.

In turn, `C=CC(=O)OC(C)COc1ccc(C(C)(C)c2ccc(OCC(C)OC(=O)C=C)cc2)cc1` (stereo not drawn) came in with a logP of 6.1.

Take `C=CC(=O)OCC(C)(C)COC(=O)C=C`: the logP stood at 2.5.

As to `C=CC(=O)OCCCOC(=O)C=C`, the logP is 0.87.

In turn, `C=CC(=O)OCCOCCOCCOCCOC(=O)C=C` returned a logP of 0.47.
